This test addresses T1, GLP-1 Receptor (Homo sapiens, UniProt P43220).
T1 construct: HD Biosciences / HDB (Method 3); host or cells: CHO-K1 (Methods 1, 2) or HEK293/CRE-Luc (Method 3)
In words: GLP-1R agonist cAMP stimulation assay. The class given is cell-based. Particulars: cells stably expressing the GLP-1 Receptor (method not given). As to the method:
Activation of GLP-1 receptor is known to stimulate cyclic AMP (cAMP) production in cells which indicates primary coupling to the Gas subunit of the G protein heterotrimeric complex.
Method 1: To optimize functional activity directed toward Gas coupling, a CHO-K1 cell line developed by DiscoverX stably expressing the GLP-1 Receptor is used. Cells expressing GLP-1 receptor are plated in a 384-well microtiter plates and incubated overnight at 37° C. with 5% CO2 to allow the cells to attach and grow. Media is then aspirated from the cells and replaced with 15 μL Hanks Balanced Salt Solution (HBSS)/5 mM Hepes:0.5 mM IBMX 0.1% BSA (pH 7.4) [Stimulation Buffer]. […] previously generated compound sample stocks at 4× final concentration in Stimulation Buffer are then added to the cells and allowed to incubate at 37° C. for 30 or 60 minutes.
After incubation the assay signal is generated using a europium chelate-labeled cAMP tracer which competes with cAMP for binding sites on a cAMP-specific monoclonal antibody labeled with ULight™ dye. When antibodies are bound to the Eu-labeled cAMP tracer FRET transfer between the Eu chelate and ULight™ labeled antibodies is detected. Free cAMP produced from stimulated cells competes with the Eu-cAMP tracer for binding to the ULight™-mAb causing a decrease in the TR-FRET signal in a dose dependent manner.
The method for detection of cAMP using the Eu-chelate technology requires incubation with Eu-cAMP tracer solution+ULight™-anti-cAMP solution for one hour at room temperature. Microplates are read following signal generation with a PerkinElmer Envision instrument utilizing TR-FRET signal detection. Percentage activity is calculated using the following formula: […]
Method 2: To optimize functional activity directed toward Gas coupling, a CHO-K1 cell line developed by DiscoverX stably expressing the GLP-1 Receptor is used. Cells expressing GLP-1 receptor are plated in a 384-well microtiter plates and incubated overnight at 37° C. with 5% CO2 to allow the cells to attach and grow. Media is then aspirated from the cells and replaced with 15 μL 2:1 Hanks Balanced Salt Solution (HBSS)/10 mM Hepes: cAMP XS+Ab reagent. Five microliters (5 μL) of previously generated compound sample stocks at 4× final concentration in assay buffer are then added to the cells and allowed to incubate at 37° C. for 30 or 60 minutes.
After incubation the assay signal is generated using enzyme fragment complementation (EFC). In EFC, the enzyme B-galactosidase is split into two complementary portions (EA and ED). The fragment ED is fused to cAMP and in the assay format competes with endogenous cAMP for binding to a cAMP specific antibody. Activated B-Gal is formed when exogenous EA fragment binds to free ED-cAMP (not bound to cAMP specific antibody). Activated enzyme levels are detected through conversion of B-gal chemiluminescent substrate which generates a detectable luminescence signal and read on standard microtiter plate.
The methodology for detection of cAMP using EFC requires incubation with 20 μL of cAMP XS+ED/CL lysis cocktail for one hour followed by incubation with 20 μL cAMP XS+EA reagent for three hours at room temperature. Microplates are read following signal generation with a PerkinElmer Envision instrument utilizing chemiluminescent signal detection. Compound activity is analyzed using CBIS data analysis suite (ChemInnovation, CA). Percentage activity is calculated using the following formula: […]
Method 3: Activation of GLP-1 receptor is known to stimulate cyclic AMP (cAMP) production in cells which indicates primary coupling to the Gas subunit of the G protein heterotrimeric complex.
To optimize functional activity directed toward Gas coupling, a HEK293/CRE-Luc cell line developed by HDB stably expressing the GLP-1 Receptor was used. […]

T1 sequence (P43220 24-463): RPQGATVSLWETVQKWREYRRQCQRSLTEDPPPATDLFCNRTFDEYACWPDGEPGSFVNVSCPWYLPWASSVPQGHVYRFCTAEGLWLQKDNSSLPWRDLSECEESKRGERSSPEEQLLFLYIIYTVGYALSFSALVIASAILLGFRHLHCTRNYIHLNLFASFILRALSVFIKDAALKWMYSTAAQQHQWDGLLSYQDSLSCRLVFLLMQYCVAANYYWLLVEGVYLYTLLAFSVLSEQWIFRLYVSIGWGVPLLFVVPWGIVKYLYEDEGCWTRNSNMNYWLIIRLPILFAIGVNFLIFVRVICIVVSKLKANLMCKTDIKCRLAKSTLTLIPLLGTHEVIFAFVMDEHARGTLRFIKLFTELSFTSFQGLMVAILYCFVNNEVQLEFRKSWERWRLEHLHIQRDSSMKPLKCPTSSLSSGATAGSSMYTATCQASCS

`CCP(=O)(CC)c1ccc(-n2ccn(-c3c4c(nn3-c3cc(C)c(F)c(C)c3)CCN(C(=O)c3[nH]c5cc(C6CCOCC6)ccc5c3C3(c5noc(=O)[nH]5)CC3)[C@H]4C)c2=O)cc1NC` [Compound 28, 3-(1-{2-[(4S)-3-{3-[4-(diethylphosphoryl)-3-(methylamino)phenyl]-2-oxo-2,3-dihydro-1H-imidazol-1-yl}-2-(4-fluoro-3,5-dimethylphenyl)-4-methyl-2H,4H,5H,6H,7H-pyrazolo[4,3-c]pyridine-5-carbonyl]-6-(oxan-4-yl)-1H-indol-3-yl}cyclopropyl)-2,5-dihydro-1,2,4-oxadiazol-5-one] showed an EC50 of 0.033 nM.

As to `CNc1cc(-n2ccn(-c3c4c(nn3-c3ccc(F)c(C5CC5)c3)CCN(C(=O)c3cc5cc(C6CCOCC6)ccn5c3C3(c5noc(=O)[nH]5)CC3)[C@H]4C)c2=O)ccc1P(C)(C)=O` [Compound 4], the EC50 amounted to 0.085 nM. Under `CCP(=O)(CC)c1ccc(-n2ccn(-c3c4c(nn3-c3cc(C)c(F)c(C)c3)CCN(C(=O)c3oc5cc(C6CCOCC6)ccc5c3C3(c5noc(=O)[nH]5)CC3)[C@H]4C)c2=O)cc1NC` [Compound 19, 3-(1-{2-[(4S)-3-{3-[4-(diethylphosphoryl)-3-(methylamino)phenyl]-2-oxo-2,3-dihydro-1H-imidazol-1-yl}-2-(4-fluoro-3,5-dimethylphenyl)-4-methyl-2H,4H,5H,6H,7H-pyrazolo[4,3-c]pyridine-5-carbonyl]-6-(oxan-4-yl)-1-benzofuran-3-yl}cyclopropyl)-4,5-dihydro-1,2,4-oxadiazol-5-one] stands 0.049 nM. Under `CCP(=O)(CC)c1ccc(-n2ccn(-c3c4c(nn3-c3cc(C)c(F)c(C)c3)CCN(C(=O)c3cc5cc(C6CCOCC6)cnn5c3C3(c5noc(=O)[nH]5)CC3)[C@H]4C)c2=O)cc1NC` [Compound 26, 3-(1-{6-[(4S)-3-{3-[4-(diethylphosphoryl)-3-(methylamino)phenyl]-2-oxo-2,3-dihydro-1H-imidazol-1-yl}-2-(4-fluoro-3,5-dimethylphenyl)-4-methyl-2H,4H,5H,6H,7H-pyrazolo[4,3-c]pyridine-5-carbonyl]-3-(oxan-4-yl)pyrrolo[1,2-b]pyridazin-7-yl}cyclopropyl)-4,5-dihydro-1,2,4-oxadiazol-5-one] stands 0.014 nM; under `CCP(=O)(CC)c1ccc(-n2ccn(-c3c4c(nn3-c3cc(C)c(F)c(C)c3)CCN(C(=O)c3cn5cc(C6CCOCC6)ccc5c3C3(c5noc(=O)[nH]5)CC3)[C@H]4C)c2=O)cc1NC` [Compound 20, 3-(1-{2-[(4S)-3-{3-[4-(diethylphosphoryl)-3-(methylamino)phenyl]-2-oxo-2,3-dihydro-1H-imidazol-1-yl}-2-(4-fluoro-3,5-dimethylphenyl)-4-methyl-2H,4H,5H,6H,7H-pyrazolo[4,3-c]pyridine-5-carbonyl]-6-(oxan-4-yl)indolizin-1-yl}cyclopropyl)-4,5-dihydro-1,2,4-oxadiazol-5-one], 0.03 nM.

In turn, `CCP(=O)(CC)c1ccc(-n2ccn(-c3c4c(nn3-c3cc(C)c(F)c(C)c3)CCN(C(=O)c3sc5cc(C6CCOCC6)ccc5c3C3(c5noc(=O)[nH]5)CC3)[C@H]4C)c2=O)cc1NC` [Compound 18, 3-(1-{2-[(4S)-3-{3-[4-(diethylphosphoryl)-3-(methylamino)phenyl]-2-oxo-2,3-dihydro-1H-imidazol-1-yl}-2-(4-fluoro-3,5-dimethylphenyl)-4-methyl-2H,4H,5H,6H,7H-pyrazolo[4,3-c]pyridine-5-carbonyl]-6-(oxan-4-yl)-1-benzothiophen-3-yl}cyclopropyl)-4,5-dihydro-1,2,4-oxadiazol-5-one] showed an EC50 of 0.061 nM. Under `CCP(=O)(CC)c1ccc(-n2ccn(-c3c(-c4cc(C)c(F)c(C)c4)nn4c3C(C)N(C(=O)c3sc5cc(C6CCOCC6)ccc5c3C3(c5noc(=O)[nH]5)CC3)CC4)c2=O)cc1NC` (stereo not shown) [Compound 30] stands 0.32 nM; under `CCP(=O)(CC)c1ccc(-n2ccn(-c3c4c(nn3-c3cc(C)c(F)c(C)c3)CCN(C(=O)c3nn5cc(C6CCOCC6)cnc5c3C3(c5noc(=O)[nH]5)CC3)[C@H]4C)c2=O)cc1NC` [Compound 24], 0.18 nM; under `CNc1cc(-n2ccn(-c3c4c(nn3-c3cc(C)c(F)c(C)c3)CCN(C(=O)c3cc5cc(C6CCOCC6)ccn5c3C3(c5noc(=O)[nH]5)CC3)[C@H]4C)c2=O)ccc1P(C)(C)=O` [Compound 3], 0.07 nM.

As for `[2H]C([2H])([2H])Nc1cc(-n2ccn(-c3c4c(nn3-c3ccc(F)c(C5CC5)c3)CCN(C(=O)c3cc5cc(C6CCOCC6)ccn5c3C3(c5noc(=O)[nH]5)CC3)[C@H]4C)c2=O)ccc1P(C)(C)=O` [Compound 6], the EC50 was 0.089 nM. Under `CCP(=O)(CC)c1ccc(-n2ccn(-c3c4c(nn3-c3ccc(F)c(C5CC5)c3)CCN(C(=O)c3cc5cc(C6CCOCC6)ccn5c3C3(c5noc(=O)[nH]5)CC3)[C@H]4C)c2=O)cc1NC` [Compound 5] stands 0.11 nM; under `CCP(=O)(CC)c1ccc(-n2ccn(-c3c4c(nn3-c3cc(C)c(F)c(C)c3)CCN(C(=O)c3cc5cc(C6CCOCC6)ccn5c3C3(c5noc(=O)[nH]5)CC3)[C@H]4C)c2=O)cc1NC` [Compound 21, 3-(1-{2-[(4S)-3-{3-[4-(diethylphosphoryl)-3-(methylamino)phenyl]-2-oxo-2,3-dihydro-1H-imidazol-1-yl}-2-(4-fluoro-3,5-dimethylphenyl)-4-methyl-2H,4H,5H,6H,7H-pyrazolo[4,3-c]pyridine-5-carbonyl]-7-(oxan-4-yl)indolizin-3-yl}cyclopropyl)-4,5-dihydro-1,2,4-oxadiazol-5-one], 0.02 nM. In turn, `CCP(=O)(CC)c1ccc(-n2ccn(-c3c(-c4cc(C)c(F)c(C)c4)nn4c3C(C)N(C(=O)c3nc5cc(C6CCOCC6)ccn5c3C3(c5noc(=O)[nH]5)CC3)CC4)c2=O)cc1NC` (stereo not shown) [Compound 29] returned an EC50 of 29 nM.

One may read the EC50 as the concentration at which the effect is half-maximal. Higher therefore signals a need for much substance.

(Values after patent US20250188103A1, “HETEROCYCLIC GLP-1 AGONISTS” (Gasherbrum Bio, Inc., priority 2022, published 2025).)
